Assay results from patent publication US20260151375A1, “CDK2 INHIBITORS AND METHODS OF USING THE SAME” (Cedilla Therapeutics, Inc., priority 2022, published 2026).
Where two headings read alike, the source gives them in different places.

How the values were obtained:
Kuramochi cells = assay: IncuCyte Kuramochi Assay (cell proliferation); type: cell-based; conditions: Kuramochi cells labeled with mApple-H2B, cell count, read-out: IncuCyte - Kuramochi RB-WT: IC50
Method: IncuCyte® assay was used to measure the effect of disclosed compounds on cell proliferation. Fluorescent microscopy images of cells were taken immediately after compound treatment and 72 hours later. Image analysis software was used to obtain cell counts as a function of compound concentration. Kuramochi cells labeled with mApple-H2B were seeded on 384-well assay-ready plates. Plates were placed in an IncuCyte® (Sartorius) and scanned at 0 and 72 hours. IncuCyte® software was used to count the number of fluorescent nuclei in each well. The fold change in cell count from 0 to 72 hours in wells treated with increasing compounds concentrations (10 pts, ½ log dilution, 20 μM top concentration) was normalized to DMSO control wells. The normalized cell counts were fit with dose response curves and a […] was calculated.

CDK2/Cyclin E1 = biological target: T1, CDK2/Cyclin E1 (Homo sapiens, UniProt P24941); assay: Caliper Assay (LabChip EZ Reader mobility shift assay), inhibition of CDK2/Cyclin E1 activity; type: biochemical; conditions: 2.5 nM CDK2/Cyclin E1(14-475), 100 μM ATP, 30 min preincubation; read-out: Caliper Assay (CDK2/CCNE1): IC50
T1 construct: purchased 14-475
Method: Inhibition of CDK2/Cyclin E1 activity in the presence of compounds of the present disclosure was evaluated using a Caliper LabChip® EZ Reader mobility shift assay. In the assay, activated CDK2/Cyclin E1 catalyzes the phosphorylation of a fluorescently tagged peptide 5-FAM-QSPKKG-CONH2 (PerkinElmer, FL Peptide 18) which induces a difference in capillary electrophoresis mobility. The peptide substrate and product were measured, and the conversion ratio was used to determine the inhibition (as % activity and IC50 values) of CDK2/Cyclin E1. Reactions contained 50 mM HEPES pH 7.5, 10 mM MgCl2, 1 mM EDTA, 2 mM DTT, 0.01% Brij35, 0.5 mg/mL BSA, 0.1% DMSO, 2.5 nM CDK2/Cyclin E1(14-475), 100 μM ATP, and 1.5 μM fluorescent peptide substrate.
Dose titrations of inhibitors in 100% DMSO were combined with 3.25 nM CDK2/Cyclin E1(14-475) and 130 μM of ATP in reaction buffer. The mixtures were incubated for 30 minutes before the addition of fluorescent peptide substrate to initiate the kinase reaction. The final conditions were 2.5 nM CDK2/Cyclin E1(14-475), 100 μM ATP, and 1.5 μM fluorescent peptide. The reactions were stopped after 100 minutes with the addition of EDTA (6 mM final EDTA concentration). The stopped reactions were analyzed on a Caliper LabChip© EZ Reader II. The conversion ratios were normalized to yield % activity, plotted against compound concentration, and fit to a four-parameter equation to determine the IC50 for each compound.

Compound	IC50 (CDK2/Cyclin E1) [µM]	IC50 (Kuramochi cells; 72 h) [µM]	IC50 (Kuramochi cells; 72 hours) [µM]
Cc1cc(C)n(C(C)c2nc(C3CN(C(=O)c4cnn(Cc5ccccc5)c4)CC34CN(C(=O)[C@H]3CC3(C)C)C4)no2)n1 (single isomer, unassigned) [I-2]	–	5 to 10	–
CC(c1nc(C2CN(C(=O)c3cncs3)CC23CN(C(=O)[C@H]2CC2(C)C)C3)no1)n1ccc(C2CCCC2)n1 (single isomer, unassigned) [I-36 4th]	0.01 to 0.1	–	> 10
CC1(C)CC1C(=O)N1CC2(CN(C(=O)c3cncs3)CC2(F)c2nnc(C(F)(F)c3ccc(Cl)c(Cl)c3)o2)C1 (single isomer, unassigned) [I-38 1st]	> 10	> 10	–
CC1(C)C[C@@H]1C(=O)N1CC2(CN(C(=O)c3cncs3)CC2(F)c2nnc(C(F)(F)c3ccc(Cl)c(Cl)c3)o2)C1 (single isomer, unassigned) [I-38 2nd]	1 to 10	> 10	–
CC1(C)C[C@@H]1C(=O)N1CC2(CN(C(=O)c3cnccn3)CC2c2nnc(C(F)(F)c3ccc(Cl)c(Cl)c3)o2)C1 (single isomer, unassigned) [I-45 1st]	0.1 to 1	> 10	–
O=C(c1onc2ccccc12)N1CC(c2nnc(C(F)(F)c3ccc(Cl)c(Cl)c3)o2)C2(C1)CN(C(=O)[C@H]1CC1(F)F)C2 (single isomer, unassigned) [I-151 1st]	> 10	> 10	–
CC1(C)C[C@@H]1C(=O)N1CC2(CN(C(=O)c3cnn(Cc4ccccc4)c3)CC2c2noc(Cc3ccc(Cl)cc3)n2)C1 (some centres unmarked) [I-1]	0.1 to 1	5 to 10	–
CCO[C@H]1C[C@@H](c2nc(C3CN(C(=O)c4cnn(Cc5ccccc5)c4)CC34CN(C(=O)[C@H]3CC3(C)C)C4)no2)C1 (some centres unmarked) [I-3]	1 to 10	> 10	–
CC1(C)C[C@@H]1C(=O)N1CC2(CN(C(=O)c3cnn(Cc4ccccc4)c3)CC2c2ncc(Cc3ccc(Cl)cc3)o2)C1 (stereo partly drawn) [I-8, (1-benzyl-1H-pyrazol-4-yl)(8-(5-(4-chlorobenzyl)oxazol-2-yl)-2-((S)-2,2-dimethylcyclopropane-1-carbonyl)-2,6-diazaspiro[3.4]octan-6-yl)methanone]	0.1 to 1	5 to 10	–
Cc1cc(C)n(Cc2nnc(C3CN(C(=O)c4cnn(Cc5ccccc5)c4)CC34CN(C(=O)[C@H]3CC3(C)C)C4)o2)n1 (some centres unmarked) [I-13]	1 to 10	> 10	–
CC1(C)C[C@@H]1C(=O)N1CC2(CN(C(=O)c3cnn(Cc4ccccc4)c3)CC2c2nnc(Cc3cncnc3)o2)C1 (stereo partly drawn) [I-14, (1-benzyl-1H-pyrazol-4-yl)(2-((S)-2,2-dimethylcyclopropane-1-carbonyl)-8-(5-(pyrimidin-5-ylmethyl)-1,3,4-oxadiazol-2-yl)-2,6-diazaspiro[3.4]octan-6-yl)methanone]	1 to 10	> 10	–
CC1(C)C[C@@H]1C(=O)N1CC2(CN(C(=O)c3cnn(Cc4ccccc4)c3)C[C@@H]2c2nnc(Cc3ccc(Cl)c(Cl)c3)o2)C1 [I-16, (1-benzyl-1H-pyrazol-4-yl)((R)-8-(5-(3,4-dichlorobenzyl)-1,3,4-oxadiazol-2-yl)-2-((S)-2,2-dimethylcyclopropane-1-carbonyl)-2,6-diazaspiro[3.4]octan-6-yl)methanone]	1 to 10	> 10	–
CC1(C)C[C@@H]1C(=O)N1CC2(CN(C(=O)c3cnn(Cc4ccccc4)c3)CC2c2nnc(CCC3CCC(F)(F)CC3)o2)C1 (some centres unmarked) [I-17]	0.1 to 1	> 10	–
CC1(C)C[C@@H]1C(=O)N1CC2(CN(C(=O)c3cnn(Cc4ccccc4)c3)CC2c2nnc(CC3CCC(F)(F)CC3)o2)C1 (some centres unmarked) [I-20]	1 to 10	> 10	–
Cc1cc(C)n([C@@H](C)c2nc(C3CN(C(=O)c4cnn(Cc5ccccc5)c4)CC34CN(C(=O)[C@H]3CC3(C)C)C4)no2)n1 (stereo partly drawn) [I-21, (1-benzyl-1H-pyrazol-4-yl)(8-(5-(1-(3,5-dimethyl-1H-pyrazol-1-yl)ethyl)-1,2,4-oxadiazol-3-yl)-2-((S)-2,2-dimethylcyclopropane-1-carbonyl)-2,6-diazaspiro[3.4]octan-6-yl)methanone]	0.1 to 1	> 10	–

Further lines, with some results ahead:

IC50 (CDK2/Cyclin E1) [µM]	Compound	IC50 (Kuramochi cells; 72 h) [µM]	IC50 (Kuramochi cells; 72 hours) [µM]
0.01 to 0.1	CC(c1nc(C2CN(C(=O)c3cncs3)CC23CN(C(=O)[C@H]2CC2(C)C)C3)no1)n1ccc(C2CCCC2)n1 (single isomer, unassigned) [I-36 1st]	> 10	–
≤ 0.01	CC(c1nc(C2CN(C(=O)c3cncs3)CC23CN(C(=O)[C@H]2CC2(C)C)C3)no1)n1ccc(C2CCCC2)n1 (single isomer, unassigned) [I-36 5th]	–	> 10
> 10	CC1(C)C[C@@H]1C(=O)N1CC2(CN(C(=O)c3cncs3)CC2(F)c2nnc(C(F)(F)c3ccc(Cl)c(Cl)c3)o2)C1 (single isomer, unassigned) [I-38 3rd]	–	> 10
1 to 10	O=C(c1onc2ccccc12)N1CC(c2nnc(C(F)(F)c3ccc(Cl)c(Cl)c3)o2)C2(C1)CN(C(=O)[C@H]1CC1(F)F)C2 (single isomer, unassigned) [I-151 2nd]	–	> 10
1 to 10	CC1(C)C[C@@H]1C(=O)N1CC2(CN(C(=O)c3cnn(Cc4ccccc4)c3)CC2c2nnc(Cc3ccc(Cl)c(Cl)c3)o2)C1 (some centres unmarked) [I-4]	–	> 10
1 to 10	CC1(C)C[C@@H]1C(=O)N1CC2(CN(C(=O)c3cnn(Cc4ccccc4)c3)CC2c2nnc(Nc3ccc(Br)cc3)o2)C1 (stereo partly drawn) [I-5, (1-benzyl-1H-pyrazol-4-yl)(8-(5-((4-bromophenyl)amino)-1,3,4-oxadiazol-2-yl)-2-((S)-2,2-dimethylcyclopropane-1-carbonyl)-2,6-diazaspiro[3.4]octan-6-yl)methanone]	> 10	–
1 to 10	CC1(C)C[C@@H]1C(=O)N1CC2(CN(C(=O)c3cnn(Cc4ccccc4)c3)CC2c2nnc(Cc3ccc(Cl)c(Cl)c3)[nH]2)C1 (stereo partly drawn) [I-6, (1-benzyl-1H-pyrazol-4-yl)(8-(5-(3,4-dichlorobenzyl)-4H-1,2,4-triazol-3-yl)-2-((S)-2,2-dimethylcyclopropane-1-carbonyl)-2,6-diazaspiro[3.4]octan-6-yl)methanone]	5 to 10	–
0.1 to 1	CC1(C)C[C@@H]1C(=O)N1CC2(CN(C(=O)c3cnn(Cc4ccccc4)c3)CC2c2cc(NC(=O)C3CC3)on2)C1 (stereo partly drawn) [I-7, N-(3-(6-(1-benzyl-1H-pyrazole-4-carbonyl)-2-((S)-2,2-dimethylcyclopropane-1-carbonyl)-2,6-diazaspiro[3.4]octan-8-yl)isoxazol-5-yl)cyclopropanecarboxamide]	5 to 10	–
1 to 10	Cc1cc(C)n(C(C)c2nc(C3CN(C(=O)c4cncs4)CC34CN(C(=O)[C@H]3CC3(C)C)C4)no2)n1 (stereo partly drawn) [I-9, (8-(5-(1-(3,5-dimethyl-1H-pyrazol-1-yl)ethyl)-1,2,4-oxadiazol-3-yl)-2-((S)-2,2-dimethylcyclopropane-1-carbonyl)-2,6-diazaspiro[3.4]octan-6-yl)(thiazol-5-yl)methanone]	> 10	–
> 10	Cc1ccc(CNC(=O)c2coc(C3CN(C(=O)c4cnn(Cc5ccccc5)c4)CC34CN(C(=O)[C@H]3CC3(C)C)C4)n2)nn1 (some centres unmarked) [I-10]	> 10	–
1 to 10	C[C@@H](NC(=O)c1coc(C2CN(C(=O)c3cnn(Cc4ccccc4)c3)CC23CN(C(=O)[C@H]2CC2(C)C)C3)n1)c1ccccc1 (some centres unmarked) [I-11]	≤ 0.5	–
1 to 10	CC1(C)C[C@@H]1C(=O)N1CC2(CN(C(=O)c3cnn(Cc4ccccc4)c3)CC2c2nnc(CC3CCOCC3)o2)C1 (some centres unmarked) [I-12]	> 10	–
0.1 to 1	Cc1cc(C)n(C(C)c2nnc(C3CN(C(=O)c4cnn(Cc5ccccc5)c4)CC34CN(C(=O)[C@H]3CC3(C)C)C4)o2)n1 (some centres unmarked) [I-18]	> 10	–
1 to 10	Cc1ccc(Cc2nnc(C3CN(C(=O)c4cnn(Cc5ccccc5)c4)CC34CN(C(=O)[C@H]3CC3(C)C)C4)o2)nn1 (some centres unmarked) [I-22]	> 10	–
0.1 to 1	CC1(C)C[C@@H]1C(=O)N1CC2(CN(C(=O)c3cnn(Cc4ccccc4)c3)CC2c2nnc(Cc3ccncc3)o2)C1 (some centres unmarked) [I-23]	> 10	–
0.1 to 1	CC1(C)C[C@@H]1C(=O)N1CC2(CN(C(=O)c3cnn(Cc4ccccc4)c3)CC2c2nnc(Cc3ccc(Cl)c(Cl)c3)o2)C1 (some centres unmarked) [I-24]	5 to 10	–
0.1 to 1	CC1(C)C[C@@H]1C(=O)N1CC2(CN(C(=O)c3cncs3)CC2c2nnc(Cc3cccc(C4CCOCC4)n3)o2)C1 (some centres unmarked) [I-25]	> 10	–
1 to 10	CC1(C)C[C@@H]1C(=O)N1CC2(CN(C(=O)c3cncs3)CC2c2nnc(Cc3cc4ccccc4[nH]3)o2)C1 (some centres unmarked) [I-26]	> 10	–
